Measurements published in ChEMBL document CHEMBL5465560, “Selectivity Literature for EUbOPEN Chemogenomic Library” (2024).
One block for each compound: values may come before it.

Legend:
[1] = target: NT-3 growth factor receptor (Homo sapiens, UniProt Q16288); assay: Selectivity interaction (KinomeScan (DiscoverX)) EUB0000618a NTRK3; conditions: at 10 µM
[2] = target: Tyrosine-protein kinase ABL2 (Homo sapiens, UniProt P42684); assay: Selectivity interaction (KinomeScan (DiscoverX)) EUB0000045b ABL2
[3] = target: T1, Serine/threonine-protein kinase RIO3 (Homo sapiens) (UniProt O14730); assay: Selectivity interaction (KinomeScan (DiscoverX)) EUB0000595a RIOK3; conditions: at 10 µM
T1 sequence (whole entry): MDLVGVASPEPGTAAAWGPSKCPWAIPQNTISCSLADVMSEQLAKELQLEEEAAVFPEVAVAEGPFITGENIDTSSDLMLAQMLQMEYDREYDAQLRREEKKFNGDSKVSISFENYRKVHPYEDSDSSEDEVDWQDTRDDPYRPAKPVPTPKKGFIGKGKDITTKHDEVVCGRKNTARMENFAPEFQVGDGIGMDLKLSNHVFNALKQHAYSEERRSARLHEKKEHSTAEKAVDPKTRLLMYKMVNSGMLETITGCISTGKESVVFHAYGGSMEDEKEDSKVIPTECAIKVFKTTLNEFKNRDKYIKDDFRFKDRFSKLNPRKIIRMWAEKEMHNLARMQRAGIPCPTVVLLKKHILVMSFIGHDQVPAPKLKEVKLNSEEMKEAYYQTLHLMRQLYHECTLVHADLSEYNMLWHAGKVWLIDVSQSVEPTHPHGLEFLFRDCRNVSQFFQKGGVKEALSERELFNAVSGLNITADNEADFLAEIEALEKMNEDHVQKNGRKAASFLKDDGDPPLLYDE

[4] = target: Receptor tyrosine-protein kinase erbB-4 (Homo sapiens, UniProt Q15303); assay: Selectivity interaction (Upstate Kinase Profiler service (Millipore)) EUB0000056c ERBB4; conditions: at 1 µM
[5] = target: T2, cGMP-dependent protein kinase 2 (Homo sapiens) (UniProt Q13237); assay: Selectivity interaction (Upstate Kinase Profiler service (Millipore)) EUB0000056c PRKG2; conditions: at 1 µM
T2 sequence (whole entry): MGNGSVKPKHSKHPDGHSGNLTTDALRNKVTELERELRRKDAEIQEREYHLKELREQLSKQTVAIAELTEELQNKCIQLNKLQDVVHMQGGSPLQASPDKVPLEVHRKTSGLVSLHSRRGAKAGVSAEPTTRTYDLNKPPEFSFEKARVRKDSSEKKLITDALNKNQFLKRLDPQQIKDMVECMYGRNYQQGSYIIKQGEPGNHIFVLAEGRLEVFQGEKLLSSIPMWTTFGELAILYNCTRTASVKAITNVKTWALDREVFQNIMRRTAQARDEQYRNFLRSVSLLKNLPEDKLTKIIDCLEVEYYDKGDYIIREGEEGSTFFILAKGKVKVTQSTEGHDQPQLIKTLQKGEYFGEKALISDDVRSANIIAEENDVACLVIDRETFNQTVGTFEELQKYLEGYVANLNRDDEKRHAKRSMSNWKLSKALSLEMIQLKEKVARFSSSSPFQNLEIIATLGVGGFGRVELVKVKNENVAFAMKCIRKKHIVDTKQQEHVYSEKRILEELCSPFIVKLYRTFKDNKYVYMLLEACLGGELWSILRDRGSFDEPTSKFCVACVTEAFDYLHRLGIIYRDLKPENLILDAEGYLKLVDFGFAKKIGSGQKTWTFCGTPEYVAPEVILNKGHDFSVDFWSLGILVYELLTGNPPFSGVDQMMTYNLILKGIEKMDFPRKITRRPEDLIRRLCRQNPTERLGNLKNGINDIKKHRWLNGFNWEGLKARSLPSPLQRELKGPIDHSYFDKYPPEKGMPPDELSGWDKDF

[6] = target: Ribosomal protein S6 kinase alpha-5 (Homo sapiens) (UniProt O75582); assay: Selectivity interaction (Upstate Kinase Profiler service (Millipore)) EUB0000056c RPS6KA5; conditions: at 1 µM
[7] = target: T3, Dual specificity mitogen-activated protein kinase kinase 6 (Homo sapiens) (UniProt P52564); assay: Selectivity interaction (ActivX KiNativ screen (kinase selectivity in THP-1 cell lysates)) EUB0000639a MAP2K6; format: subcellular; conditions: lysate, at 0.04 µM
T3 sequence (whole entry): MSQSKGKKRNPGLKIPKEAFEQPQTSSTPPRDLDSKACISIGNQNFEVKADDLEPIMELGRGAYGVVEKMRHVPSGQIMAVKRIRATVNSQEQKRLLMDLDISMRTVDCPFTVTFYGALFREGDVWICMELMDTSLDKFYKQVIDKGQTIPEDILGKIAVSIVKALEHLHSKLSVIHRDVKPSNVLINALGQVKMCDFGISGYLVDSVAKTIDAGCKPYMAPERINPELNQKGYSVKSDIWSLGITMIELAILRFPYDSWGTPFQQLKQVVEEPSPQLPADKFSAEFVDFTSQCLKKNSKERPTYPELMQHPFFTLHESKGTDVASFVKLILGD

[8] = tested on: Tyrosine-protein kinase ABL1 (Homo sapiens), P00519 [T315I]; assay: Selectivity interaction (KinomeScan (DiscoverX)) EUB0001049a ABL1; conditions: at 1 µM
[9] = target: T4, Tyrosine-protein kinase receptor TYRO3 (Homo sapiens) (UniProt Q06418); assay: Selectivity interaction (KinomeScan (DiscoverX)) EUB0000092b TYRO3; conditions: at 10 µM
T4 sequence (whole entry): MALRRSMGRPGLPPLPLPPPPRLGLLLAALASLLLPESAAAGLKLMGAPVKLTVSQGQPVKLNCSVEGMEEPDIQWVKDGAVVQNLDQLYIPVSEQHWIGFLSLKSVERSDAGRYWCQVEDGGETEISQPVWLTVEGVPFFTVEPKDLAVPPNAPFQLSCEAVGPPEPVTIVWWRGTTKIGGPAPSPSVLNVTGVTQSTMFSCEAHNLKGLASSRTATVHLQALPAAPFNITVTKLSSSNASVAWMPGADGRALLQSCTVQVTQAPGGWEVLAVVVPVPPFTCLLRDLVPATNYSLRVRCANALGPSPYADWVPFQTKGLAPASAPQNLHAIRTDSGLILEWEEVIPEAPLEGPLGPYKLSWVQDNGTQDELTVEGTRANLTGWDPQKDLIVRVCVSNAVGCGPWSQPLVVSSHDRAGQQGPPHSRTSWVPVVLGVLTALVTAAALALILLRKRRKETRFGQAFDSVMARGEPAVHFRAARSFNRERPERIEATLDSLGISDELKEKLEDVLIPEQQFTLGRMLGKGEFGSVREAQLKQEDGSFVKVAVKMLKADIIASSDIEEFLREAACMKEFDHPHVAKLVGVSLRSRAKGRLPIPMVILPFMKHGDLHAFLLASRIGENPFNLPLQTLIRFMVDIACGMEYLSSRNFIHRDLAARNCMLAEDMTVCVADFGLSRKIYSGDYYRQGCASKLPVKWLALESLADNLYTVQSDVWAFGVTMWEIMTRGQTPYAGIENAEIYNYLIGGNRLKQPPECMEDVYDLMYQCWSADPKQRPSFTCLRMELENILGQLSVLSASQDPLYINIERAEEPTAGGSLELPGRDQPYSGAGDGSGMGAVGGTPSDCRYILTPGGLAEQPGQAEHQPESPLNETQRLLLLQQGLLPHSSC

Chain of Tyrosine-protein kinase ABL2 (P42684 whole entry): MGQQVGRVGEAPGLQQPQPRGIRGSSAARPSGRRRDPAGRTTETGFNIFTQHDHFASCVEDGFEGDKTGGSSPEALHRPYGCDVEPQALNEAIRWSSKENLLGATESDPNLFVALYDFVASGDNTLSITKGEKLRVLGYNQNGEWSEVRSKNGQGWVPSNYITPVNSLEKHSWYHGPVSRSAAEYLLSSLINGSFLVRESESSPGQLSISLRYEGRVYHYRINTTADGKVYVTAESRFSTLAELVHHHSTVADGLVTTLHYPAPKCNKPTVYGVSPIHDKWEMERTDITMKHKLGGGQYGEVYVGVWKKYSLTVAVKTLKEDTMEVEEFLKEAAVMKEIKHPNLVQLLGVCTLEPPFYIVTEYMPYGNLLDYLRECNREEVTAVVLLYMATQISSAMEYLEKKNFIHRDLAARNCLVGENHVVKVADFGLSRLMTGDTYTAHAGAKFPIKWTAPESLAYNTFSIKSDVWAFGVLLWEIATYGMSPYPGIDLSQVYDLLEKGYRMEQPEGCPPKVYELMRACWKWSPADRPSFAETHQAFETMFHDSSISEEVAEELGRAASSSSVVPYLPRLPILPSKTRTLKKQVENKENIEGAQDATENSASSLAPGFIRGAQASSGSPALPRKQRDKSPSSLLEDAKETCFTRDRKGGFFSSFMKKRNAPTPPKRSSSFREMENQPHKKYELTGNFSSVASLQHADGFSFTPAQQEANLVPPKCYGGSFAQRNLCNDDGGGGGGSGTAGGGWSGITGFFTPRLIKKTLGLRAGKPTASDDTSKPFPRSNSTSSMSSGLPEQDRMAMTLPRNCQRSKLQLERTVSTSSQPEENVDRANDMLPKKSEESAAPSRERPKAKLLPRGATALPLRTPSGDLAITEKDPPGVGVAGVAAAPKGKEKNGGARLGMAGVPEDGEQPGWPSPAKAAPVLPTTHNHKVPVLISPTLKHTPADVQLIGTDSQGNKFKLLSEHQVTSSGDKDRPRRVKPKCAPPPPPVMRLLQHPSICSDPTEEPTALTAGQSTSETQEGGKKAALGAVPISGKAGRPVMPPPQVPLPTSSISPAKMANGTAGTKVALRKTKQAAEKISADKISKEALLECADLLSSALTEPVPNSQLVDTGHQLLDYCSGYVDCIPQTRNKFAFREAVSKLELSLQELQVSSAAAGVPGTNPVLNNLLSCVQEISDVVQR
Chain of Receptor tyrosine-protein kinase erbB-4 (Q15303 whole entry): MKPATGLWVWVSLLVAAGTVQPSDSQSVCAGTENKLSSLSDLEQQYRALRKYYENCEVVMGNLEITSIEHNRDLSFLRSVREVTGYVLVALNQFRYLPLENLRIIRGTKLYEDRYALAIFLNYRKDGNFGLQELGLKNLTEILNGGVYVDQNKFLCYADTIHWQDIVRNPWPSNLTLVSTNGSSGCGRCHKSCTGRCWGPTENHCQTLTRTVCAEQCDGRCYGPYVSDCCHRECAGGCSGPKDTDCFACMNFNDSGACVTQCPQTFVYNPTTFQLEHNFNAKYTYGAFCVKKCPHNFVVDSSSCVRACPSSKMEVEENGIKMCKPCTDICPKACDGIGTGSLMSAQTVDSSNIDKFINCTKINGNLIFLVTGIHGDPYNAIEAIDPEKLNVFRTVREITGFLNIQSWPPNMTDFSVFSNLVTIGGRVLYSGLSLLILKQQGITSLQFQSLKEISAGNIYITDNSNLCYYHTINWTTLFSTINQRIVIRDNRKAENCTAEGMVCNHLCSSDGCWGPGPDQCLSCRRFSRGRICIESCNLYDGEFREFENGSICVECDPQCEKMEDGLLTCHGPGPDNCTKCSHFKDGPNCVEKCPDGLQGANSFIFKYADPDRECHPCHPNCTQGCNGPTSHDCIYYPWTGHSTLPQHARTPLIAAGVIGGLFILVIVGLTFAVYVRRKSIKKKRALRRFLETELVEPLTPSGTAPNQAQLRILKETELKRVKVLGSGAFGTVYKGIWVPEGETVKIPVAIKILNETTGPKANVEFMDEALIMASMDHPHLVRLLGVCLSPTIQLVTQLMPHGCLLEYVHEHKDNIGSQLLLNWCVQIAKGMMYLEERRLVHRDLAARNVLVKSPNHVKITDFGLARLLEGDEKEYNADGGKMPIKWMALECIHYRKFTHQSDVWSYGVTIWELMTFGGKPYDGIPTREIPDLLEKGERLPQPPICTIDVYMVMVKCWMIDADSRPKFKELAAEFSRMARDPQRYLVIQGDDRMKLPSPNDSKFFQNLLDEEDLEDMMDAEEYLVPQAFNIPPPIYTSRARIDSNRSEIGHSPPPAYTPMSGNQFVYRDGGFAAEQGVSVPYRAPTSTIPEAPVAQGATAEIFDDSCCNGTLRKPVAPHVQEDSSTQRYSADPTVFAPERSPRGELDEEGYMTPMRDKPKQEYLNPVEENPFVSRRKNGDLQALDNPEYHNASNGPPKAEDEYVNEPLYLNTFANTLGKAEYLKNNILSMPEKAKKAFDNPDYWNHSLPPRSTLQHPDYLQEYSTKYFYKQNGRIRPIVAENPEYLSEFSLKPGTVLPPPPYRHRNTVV
Chain of NT-3 growth factor receptor (Q16288 32-839 limits assumed): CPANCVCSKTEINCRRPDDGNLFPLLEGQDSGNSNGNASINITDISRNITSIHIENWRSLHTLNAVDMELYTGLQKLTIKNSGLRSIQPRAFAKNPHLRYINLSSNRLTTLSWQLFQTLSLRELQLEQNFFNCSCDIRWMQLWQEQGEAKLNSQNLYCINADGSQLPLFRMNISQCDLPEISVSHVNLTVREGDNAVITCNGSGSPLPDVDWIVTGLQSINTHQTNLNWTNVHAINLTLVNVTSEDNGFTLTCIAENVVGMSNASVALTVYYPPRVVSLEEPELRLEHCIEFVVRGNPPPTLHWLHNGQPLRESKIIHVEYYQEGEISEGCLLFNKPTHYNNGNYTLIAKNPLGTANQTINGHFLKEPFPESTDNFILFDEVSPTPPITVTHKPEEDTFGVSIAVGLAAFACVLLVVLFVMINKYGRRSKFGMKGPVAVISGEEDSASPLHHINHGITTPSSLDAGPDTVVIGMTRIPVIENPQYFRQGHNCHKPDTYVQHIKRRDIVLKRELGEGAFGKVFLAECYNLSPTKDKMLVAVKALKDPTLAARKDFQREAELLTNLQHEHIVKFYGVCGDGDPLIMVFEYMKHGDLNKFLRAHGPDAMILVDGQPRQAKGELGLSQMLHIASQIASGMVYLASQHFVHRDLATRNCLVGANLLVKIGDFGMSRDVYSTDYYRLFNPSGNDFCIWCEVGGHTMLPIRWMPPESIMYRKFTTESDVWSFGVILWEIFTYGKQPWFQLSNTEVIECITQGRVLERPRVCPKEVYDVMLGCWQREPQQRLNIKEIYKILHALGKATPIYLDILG
Chain of Ribosomal protein S6 kinase alpha-5 (Homo sapiens) (O75582 whole entry, looked up): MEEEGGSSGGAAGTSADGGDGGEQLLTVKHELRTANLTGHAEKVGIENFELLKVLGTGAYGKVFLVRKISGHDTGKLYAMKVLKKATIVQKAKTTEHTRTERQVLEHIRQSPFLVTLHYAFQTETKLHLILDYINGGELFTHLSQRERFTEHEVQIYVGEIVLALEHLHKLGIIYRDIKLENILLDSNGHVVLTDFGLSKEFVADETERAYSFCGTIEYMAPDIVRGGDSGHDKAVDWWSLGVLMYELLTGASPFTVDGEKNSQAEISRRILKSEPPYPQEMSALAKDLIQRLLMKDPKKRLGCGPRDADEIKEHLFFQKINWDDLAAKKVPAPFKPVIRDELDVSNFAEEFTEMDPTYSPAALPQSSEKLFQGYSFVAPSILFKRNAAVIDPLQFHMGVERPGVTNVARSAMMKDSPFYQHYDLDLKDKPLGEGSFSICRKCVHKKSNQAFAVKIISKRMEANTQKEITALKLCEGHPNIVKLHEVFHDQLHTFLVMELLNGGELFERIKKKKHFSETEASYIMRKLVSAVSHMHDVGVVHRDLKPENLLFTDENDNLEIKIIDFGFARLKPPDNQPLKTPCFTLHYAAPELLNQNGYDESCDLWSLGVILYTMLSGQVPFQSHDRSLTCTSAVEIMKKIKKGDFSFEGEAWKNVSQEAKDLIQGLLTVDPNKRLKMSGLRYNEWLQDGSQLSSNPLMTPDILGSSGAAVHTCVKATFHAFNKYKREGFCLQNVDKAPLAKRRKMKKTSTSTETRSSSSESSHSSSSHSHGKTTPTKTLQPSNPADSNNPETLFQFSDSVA

Compound: O[C@H]1CC[C@H](Nc2ncc3nc(Nc4c(F)cc(F)cc4F)n([C@H]4CCOC4)c3n2)CC1
% of control [1]: 100%

Compound: C=CC(=O)Nc1cc(-n2c(=O)ccc3cnc4ccc(-c5ccc(NS(C)(=O)=O)cc5)cc4c32)ccc1C
% of control ([2]; at 1 µM): 100%
% of control ([2]; at 10 µM): 100%

Compound: COCC(=O)NC/C=C/c1ccc2ncnc(Nc3ccc(Oc4ccc(C)nc4)c(C)c3)c2c1 [CP-724714]
% of control [3]: 100%

% of inhibition [4]: 12%
% of inhibition [5]: -6%
% of inhibition [6]: -9%
Compound: Cc1ccc(-c2ccc3c(ccc4sc5c(c43)NC[C@@H](C)NC5=O)n2)cn1

% of inhibition [7]: 4.7%
Compound: CC[C@@H]1[C@H](F)C(=O)N[C@@H]1COc1nccc2cc(C(N)=O)c(OC)cc12 [ZIMLOVISERTIB]

Compound: COc1cc(Nc2nc(C)cc(-c3cnn4nc(OC)ccc34)n2)cc(C(F)(F)F)c1
% of control [8]: 100%

Compound: CCC(=O)N1CCN(c2ccc(-n3c(=O)ccc4cnc5ccc(-c6cnc7ccccc7c6)cc5c43)cc2C(F)(F)F)CC1
% of control [9]: 31%
